This note sets out measurements from PubChem BioAssay (NCI).

Among the test systems are TK-10 renal; SF-268 CNS; SK-OV-3 ovarian; NCI-H23 lung; PC-3 prostate; K-562 leukemia; IGROV1 ovarian; CCRF-CEM leukemia; RXF 393 renal; MDA-MB-231 breast; SF-295 CNS; DU-145 prostate; HCT-116 colon; SNB-19 CNS; HCT-15 colon; SF-539 CNS; RPMI-8226 leukemia; KM12 colon.
What all share (assay): DTP human tumour cell line panel, 48 h

The structures appear in SMILES notation.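 Exposure lasted 48 hours, with cells grown in 96-well plates and compounds tested at five concentrations. TGI: total growth inhibition.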 Where a SMILES comes first, the peptide text is derived from it. [ ]: non-standard residue; d: D form. The star is where a group is joined. ξ: configuration not given here. ξF = NC(Cc1ccccc1)C(=O)O; Cbz = O=C(OCc1ccccc1)*; Aib = CC(C)(N)C(=O)O; NHNH2 = NN*

Broadly, the TGI is the concentration at which net growth stops. With `Oc1ccc(O)c(CNc2ccc(C(O)C(F)(F)F)cc2)c1` (centres undefined), the TGI in the experiment with TK-10 renal was 33.1 µM; with SF-268 CNS, 66 µM; in the experiment on SK-OV-3 ovarian, over 100 µM; in the experiment on NCI-H23 lung, 56.9 µM; in the experiment on PC-3 prostate it was over 100 µM; with K-562 leukemia, over 100 µM. The concentration for total growth inhibition (TGI) worked out at 30.1 µM in the experiment on IGROV1 ovarian; 33.5 µM with CCRF-CEM leukemia; 26.7 µM with RXF 393 renal; 33.7 µM in the experiment on MDA-MB-231 breast; 32.5 µM with SF-295 CNS; 28.5 µM in the experiment with DU-145 prostate. Moreover, the TGI with HCT-116 colon was 32.2 µM; in the experiment on SNB-19 CNS, over 100 µM; in the experiment with HCT-15 colon, 30.7 µM; with SF-539 CNS, 21.1 µM.
Take `Cc1c(N2C(=O)/C(=C/c3ccc(Cl)cc3)N=C2c2ccccc2)c(=O)n(-c2ccccc2)n1C`: the TGI in the experiment on RPMI-8226 leukemia was 42.9 µM; in the experiment with KM12 colon it was over 100 µM; in the experiment with TK-10 renal, 60.3 µM; in the experiment on SF-268 CNS, over 100 µM; with SK-OV-3 ovarian it was over 100 µM; in the experiment on NCI-H23 lung it was 78.2 µM. Moreover, the concentration for total growth inhibition (TGI) in the experiment with PC-3 prostate is over 100 µM; in the experiment with K-562 leukemia, over 100 µM; with IGROV1 ovarian, 88.5 µM; in the experiment with CCRF-CEM leukemia, over 100 µM; in the experiment with RXF 393 renal, 76.8 µM; in the experiment with MDA-MB-231 breast, over 100 µM. The TGI with SF-295 CNS was over 100 µM; with DU-145 prostate it was over 100 µM; in the experiment with HCT-116 colon it was over 100 µM; with HCT-15 colon, 19.6 µM; in the experiment with SF-539 CNS, 73.6 µM.
Take `Cc1ccc(NC(Nc2ccc(C)cc2C)=C(C(Cl)=C(Cl)Cl)[N+](=O)[O-])c(C)c1`: the TGI in the experiment on RPMI-8226 leukemia was found to be 52.8 µM; in the experiment on KM12 colon, 29.2 µM; with TK-10 renal it was 33 µM; with SF-268 CNS, 33.2 µM; in the experiment with SK-OV-3 ovarian it was 39.8 µM; in the experiment with NCI-H23 lung, 20 µM. Further, the TGI with PC-3 prostate was determined as 25 µM; in the experiment with K-562 leukemia, 24.6 µM; in the experiment with IGROV1 ovarian it was 29.2 µM; in the experiment with CCRF-CEM leukemia it was 15.2 µM; in the experiment with RXF 393 renal, 32.6 µM; in the experiment on MDA-MB-231 breast, 33 µM. For the same compound, the TGI in the experiment with DU-145 prostate amounted to 27.9 µM; with HCT-116 colon, 26.7 µM; in the experiment with SNB-19 CNS, 30 µM; in the experiment on HCT-15 colon, 32.3 µM; in the experiment with SF-539 CNS, 43 µM.
Take `CC(C)(NC(=O)OCc1ccccc1)C(=O)NC(Cc1ccccc1)C(=O)NN` (centres undefined) (Cbz-[Aib]-[ξF]-NHNH2): the TGI in the experiment on RPMI-8226 leukemia, with KM12 colon, in the experiment on TK-10 renal, in the experiment with SF-268 CNS, in the experiment with SK-OV-3 ovarian and with NCI-H23 lung was over 100 µM throughout. The TGI in the experiment with PC-3 prostate, with K-562 leukemia, in the experiment on IGROV1 ovarian, in the experiment with CCRF-CEM leukemia, in the experiment on RXF 393 renal and in the experiment with MDA-MB-231 breast was over 100 µM throughout. For the same compound, the TGI with SF-295 CNS, in the experiment with DU-145 prostate, in the experiment on SNB-19 CNS, with HCT-15 colon and with SF-539 CNS was over 100 µM in each case.
As to `COC(=O)C(NC(=O)C(CC(=O)OC(C)(C)C)NC(=O)OC(C)(C)C)C(O)c1ccccc1` (centres undefined), the TGI in the experiment with RPMI-8226 leukemia is over 100 µM; in the experiment with KM12 colon, over 100 µM; with TK-10 renal it was over 100 µM; in the experiment with SF-268 CNS, over 100 µM; in the experiment on SK-OV-3 ovarian, 61.9 µM; in the experiment with NCI-H23 lung, over 100 µM. Further, the TGI in the experiment on PC-3 prostate, in the experiment on K-562 leukemia, with IGROV1 ovarian, in the experiment with CCRF-CEM leukemia, with RXF 393 renal and in the experiment on MDA-MB-231 breast was over 100 µM throughout. The TGI in the experiment on DU-145 prostate, in the experiment with HCT-116 colon, with SNB-19 CNS, in the experiment on HCT-15 colon and in the experiment with SF-539 CNS was over 100 µM in each case.
On to `C=C=C(CC1CCCCC1=O)S(=O)(=O)c1ccccc1` (centres undefined), for which the TGI was over 4.76 µM in the experiment with RPMI-8226 leukemia; over 10 µM with TK-10 renal; over 10 µM with SF-268 CNS; over 10 µM in the experiment on SK-OV-3 ovarian; over 10 µM in the experiment on NCI-H23 lung; over 10 µM in the experiment with PC-3 prostate. The TGI in the experiment on K-562 leukemia was over 10 µM; in the experiment with IGROV1 ovarian it was over 10 µM; in the experiment on CCRF-CEM leukemia, 7.24 µM; in the experiment on RXF 393 renal it was over 10 µM; in the experiment on MDA-MB-231 breast, over 10 µM; in the experiment with SF-295 CNS it was over 10 µM. Besides, the TGI in the experiment with DU-145 prostate is over 10 µM; in the experiment on HCT-116 colon, over 4.94 µM; with SNB-19 CNS, over 10 µM; with HCT-15 colon, over 10 µM; in the experiment on SF-539 CNS it was over 10 µM.
With `CC(=O)C1=C(C)N2C(=NC3=C(CCc4ccccc43)C2c2ccc(F)cc2)S1` (centres undefined), the TGI in the experiment on RPMI-8226 leukemia is 85 µM; with KM12 colon, over 100 µM; in the experiment on SF-268 CNS, over 100 µM; in the experiment on SK-OV-3 ovarian, over 100 µM; in the experiment with NCI-H23 lung, over 100 µM; with PC-3 prostate, over 100 µM. Moreover, the TGI in the experiment on K-562 leukemia is 90.4 µM; in the experiment on IGROV1 ovarian, over 100 µM; in the experiment with CCRF-CEM leukemia, over 100 µM; in the experiment on RXF 393 renal, over 100 µM; in the experiment on MDA-MB-231 breast, over 100 µM; with SF-295 CNS, over 100 µM. The TGI in the experiment on DU-145 prostate, in the experiment on HCT-116 colon, in the experiment on SNB-19 CNS and with SF-539 CNS was over 100 µM throughout.
For `O=c1oc2ccccc2nc1/C=C(\O)c1ccc(Cl)cc1`, the TGI in the experiment on KM12 colon, with TK-10 renal, in the experiment with SF-268 CNS, in the experiment on SK-OV-3 ovarian, with NCI-H23 lung and in the experiment on PC-3 prostate was over 100 µM each time. For the same compound, the TGI in the experiment on K-562 leukemia, with IGROV1 ovarian, with CCRF-CEM leukemia, in the experiment with RXF 393 renal, in the experiment on MDA-MB-231 breast and with SF-295 CNS was over 100 µM each time. For the same compound, the TGI in the experiment on DU-145 prostate, in the experiment on HCT-116 colon, with SNB-19 CNS, in the experiment with HCT-15 colon and in the experiment with SF-539 CNS was over 100 µM in each case.
